Laboratory results as given in patent US20160169850A1, “SENSOR MOLECULE” (University of Malta, priority 2014, published 2016).
Read-outs that look alike come from different tables or passages of the source.

Columns and labels:
[1] = for Fluorescent Output: 1:1 MeOH:H2O
[2] = 1:1 methanol:water, excess H^+ (pH 3), emission at 525 nm
[3] = CH3CN; known sensor; cited from earlier work
[4] = CH3CN; known sensor; cited from earlier work; remark: listed apart in the source

For “N-ferrocenyl-4-methylpiperazine-1,8-naphthalimide [Compound 5]”, which “Output emission, logic level” value (Condition A: H^+ low, Fe^3+ low) is on record?
The value was “low (Output is considered high when >0.050)”.

What about the “Output emission, logic level” value (Condition B: 0.2 mM H^+, Fe^3+ low) of the same molecule?
Its value is “low (Output is considered high when >0.050)”.

What about the “Output emission, logic level” value (Condition C: H^+ low, 10 μM Fe(III)) of the same molecule?
Its value is “low (Output is considered high when >0.050)”.

And the “Output emission, logic level” value (Condition D: 0.2 mM H^+ and 10 μM Fe(III))?
The value was “high (Output is considered high when >0.050)”.

What about the “visual output under UV lamp” value ([1]; 365 nm light, high acid and Fe(III), 1:1 methanol/water) of the same molecule?
Its value is “bright green fluorescent”.

And the “Fluorescent Output” value ([1]; Condition A: no inputs)?
The value was “Low”.

And the “Fluorescent Output” value ([1]; Condition D: Fe(III) and H^+ both)?
Its value is “High”.

And the fluorescence enhancement ([1]; both inputs versus no input or one input, 1:1 methanol:water)?
Its fluorescence enhancement is 19 fold.

And the “−log [Fe^3+] at equivalence point” value [2]?
Its value is 5.1.

What does the source list for `CN(CC1=CSC(=C2SC=CS2)S1)Cc1c2ccccc2cc2ccccc12` [Compound 2]?
Fluorescent Enhancement (FE) [3]: 5; Quantum Yield (ΦF) [4]: 0.015
